Results: ChEMBL document CHEMBL1201862, “PubChem BioAssay data set” (2004)
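Following 48 hours of exposure in 96-well plates, responses at five concentrations were used to interpolate endpoints linearly. At the GI50, growth is halved.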 The source made the active and inactive calls. Rule as the data show it: active = GI50 up to about 1.1 µM and inactive = higher.

How the values were obtained:
Assay in all cases: NCI-60 cell line screen, 48 h
[1] = system: SW-620
[2] = system: UACC-62
[3] = system: SF-295
[4] = system: NCI-H226
[5] = system: OVCAR-4
[6] = system: RPMI-8226
[7] = system: SN12C
[8] = system: A498
[9] = system: A549
[10] = system: MOLT-4
[11] = system: SNB-75
[12] = system: M14
[13] = system: HT-29
[14] = system: SK-MEL-28
[15] = system: HOP-92
[16] = system: OVCAR-3
[17] = system: OVCAR-5
[18] = system: SF-539
[19] = system: SK-MEL-5
[20] = system: COLO 205

Compound	GI50 [1]	GI50 [2]	GI50 [3]	GI50 [4]	GI50 [5]	GI50 [6]	GI50 [7]	GI50 [8]	GI50 [9]	GI50 [10]	GI50 [11]	GI50 [12]	GI50 [13]	GI50 [14]	GI50 [15]	GI50 [16]	GI50 [17]	GI50 [18]	GI50 [19]	GI50 [20]
CC1CCC(O)/C=C/C(=O)OC(C)C(O)/C=C/C(=O)O1 (stereo not given)	60.4 µM (inactive)	> 100 µM (inactive)	> 100 µM (inactive)	> 100 µM (inactive)	> 100 µM (inactive)	74.1 µM (inactive)	> 100 µM (inactive)	> 100 µM (inactive)	> 100 µM (inactive)	19.1 µM (inactive)	> 100 µM (inactive)	> 56.1 µM (inactive)	> 100 µM (inactive)	> 100 µM (inactive)	52.8 µM (inactive)	57.1 µM (inactive)	> 100 µM (inactive)	> 86.7 µM (inactive)	> 100 µM (inactive)	64 µM (inactive)
NCCCCN(CCCN)Cc1ccccc1	> 100 µM (inactive)	> 100 µM (inactive)	> 100 µM (inactive)	> 100 µM (inactive)	> 100 µM (inactive)	> 100 µM (inactive)	> 100 µM (inactive)	> 100 µM (inactive)	> 100 µM (inactive)	> 100 µM (inactive)	20.1 µM (inactive)	> 100 µM (inactive)	> 100 µM (inactive)	> 100 µM (inactive)	> 100 µM (inactive)	> 100 µM (inactive)	> 100 µM (inactive)	> 100 µM (inactive)	> 100 µM (inactive)	> 100 µM (inactive)
Cc1c2cc[n+](C)cc2c(C)c2c1[nH]c1ccc(O)cc12 [ELLIPTINIUM ACETATE]	14 µM (inactive)	15.3 µM (inactive)	5.79 µM (inactive)	1.12 µM (inactive)	38.3 µM (inactive)	36.7 µM (inactive)	0.532 µM (active)	52.5 µM (inactive)	0.447 µM (active)	0.241 µM (active)	2.36 µM (inactive)	1.08 µM (active)	62.4 µM (inactive)	6.87 µM (inactive)	19.3 µM (inactive)	23.9 µM (inactive)	71.9 µM (inactive)	12 µM (inactive)	7.89 µM (inactive)	21.8 µM (inactive)
